Data on six compounds can be found in patent US8937068B2, “Pyridopyrazine derivatives and their use” (Zentaris GmbH, priority 2005, dated 2015).

The subject of one assay is Jnk1 + Jnk2. Nature of the assay: Cell-free kinase assay (ALPHA technology), Jnk1 + Jnk2. The assay is classed as biochemical, human. Conditions: 10 μM ATP. In outline:
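Recombinant human GST- or His-tagged kinases were assayed for 1 h with ALPHA bead detection read after overnight standing. For PI3Kalpha: 1 ng enzyme, 100 μM ATP, 20 μM PIP2 in Hepes pH 7.4, detected by GST:Grp1/biotin-PIP3 competition. The p38alpha and Jnk assays followed the MAPK format (10 μM ATP, biotin-MBP, anti-phospho-MBP); IC50 from %-inhibition.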

For the next assay, the system named is Erk → pRsk. Nature of the assay: Cellular substrate phosphorylation (Western Blotting), Erk substrate pRsk. Conditions: 50 μM, 5 h. The assay is classed as cell-based. On the procedure: (§1) This method can be used to predict whether the kinase modulator under study also achieves the desired effect in a cellular context, i.e. in this case, a substrate protein downstream of the target kinase is investigated for its phosphorylation status. For this purpose, the cells incubated with substance are lysed and the total protein separated on a reducing polyacrylamide gel. The proteins are then transferred to a PVDF membrane by means of Western Blotting and the substrate bands sought are made visible with specific antibodies and a suitable detection method. The substrate proteins downstream of the target kinases are detected simultaneously with a respectively special anti-phospho-antibody and at the same time a total antibody which recognizes the substrate total protein. This simultaneous measurement can be made using the duplex technology of the ODYSSEY imagers (LiCOR). The intensity of the total substrate bands is used for normalising or quantifying the phosphorylation inhibition or activation.
(§2) Suitable tumour cell lines (e.g. BxPC3, Hct116 or MDA MB468) were injected into six-well microtitre plates in a defined cell number (e.g. 350 000 cells/well for BxPC3 and Hct116) in the respective standard complete medium and then incubated overnight at 37° C., 5% CO2 and 95% air humidity. The cells were then incubated for a further 24 h under serum-reduced conditions i.e. in the respective medium but with only 0.25% serum. The test substances were prepared as stock solutions (10 mM) in DMSO and incubated with the cells in final concentrations of 5, 15.8 and 50 μM for 5 h. This was followed by cell lysis in 25 mM Tris, 150 mM NaCl, 10 mM Na-pyrophosphate, 2 mM EGTA, 25 mM β-glycerophosphate, 25 mM NaF, 10% glycerine, 0.75% NP-40, 100 μM NaVO4 buffer. Following protein quantification by means of BCA (bicinchonic acid protein assay kit, Sigma) Assay, protein quantities of about 20 μg per track were separated on a Lämmli polyacrylamide gel and then transferred to a PVDF membrane (Millipore) by means of Semi-Dry Western-Blotting at 0.8 mA/cm^2 for 1 h. This was followed by pre-hybridisation of the membrane for 1 hour in I-block reagent (Applied Biosystems) and incubation overnight with the specific antibodies. To determine the Erk and PI3K inhibition, the respectively downstream substrates Rsk1 were detected with the total antibody (Rsk #sc-231g C-21, Santa Cruz) and the phospho-antibody (Phospho-p90RSK (S380) #9341, NEB Cell Signalling) and Akt was detected with the total antibody (Akt1 #sc-1618 C-20, Santa Cruz) and the phospho-antibody (Phospho-Akt (Ser 473) #9271, NEB Cell Signaling). After washing the membrane, secondary antibody incubation was carried out with anti-rabbit IR Dye 800 (#611-732-127, Rockland) for the phospho-antibody and anti-goat Alexa Fluor 680 (#A-21081, Molecular Probes) for the total protein-antibody. After incubating for 30 min at room temperature in the dark, the hybridisation of the detection antibody on the membrane was detected by scanning in the ODYSSEY imager (LiCOR).
(§3) The reduction of the fluorescence intensity of the phospho-substrate bands (pRsk and pAkt) is given in the table below as % inhibition and relates to the following formula:
(§4) The band intensity (fluorescence intensity) of the respective non-inhibited (without substance) phospho-substrates was used as 100% control.
In general terms: Immunoblotting shows a protein as a band on a membrane.

The next assay deals with PI3K → pAkt. Nature of the assay: Cellular substrate phosphorylation (Western Blotting), PI3K substrate pAkt. The assay is classed as cell-based. Conditions: 50 μM, 5 h. On the procedure:
as §1, §2, §3, §4

Take `CCNC(=O)Nc1ccc2ncc(Nc3ccc(C)cc3)nc2n1` [Compound 150, 1-Ethyl-3-(3-p-tolylamino-pyrido[2,3-b]pyrazin-6-yl)-urea]: the IC50 in the assay on Jnk1 + Jnk2 was over 100 µM. Further, the inhibition at 50 µM was 0% in the assay with Erk → pRsk and 90% in the assay on PI3K → pAkt.
For `CCNC(=O)Nc1ccc2ncc(-c3ccc(O)c(OC)c3)nc2n1.Cc1ccc(S(=O)(=O)O)cc1` [Compound 183, 1-Ethyl-3-[3-(4-hydroxy-3-methoxy-phenyl)-pyrido[2,3-b]pyrazin-6-yl]-urea p-Toluolsulfonate], the IC50 in the assay on Jnk1 + Jnk2 was determined as 4.7 µM. Moreover, the “Inhibition of cellular substrate phosphorylation Erk → pRsk” value with Erk → pRsk turned out to be 80%. Besides, the “Inhibition of cellular substrate phosphorylation PI3K → pAkt” value in the assay with PI3K → pAkt came out at 80%.
With `CCNC(=O)Nc1ccc2ncc(-c3cnn(C)c3)nc2n1` [Compound 173, 1-Ethyl-3-[3-(1-methyl-1H-pyrazol-4-yl)-pyrido[2,3-b]pyrazin-6-yl]-urea], the IC50 in the assay on Jnk1 + Jnk2 came to 2.9 µM. For the same compound, the inhibition at 50 µM worked out at 90% in the assay with Erk → pRsk and 50% in the assay with PI3K → pAkt.
`C=CCNC(=S)Nc1ccc2ncc(-c3ccc(O)cc3)nc2n1` [Compound 30, 1-allyl-3-[3-(4-hydroxy-phenyl)-pyrido[2,3-b]pyrazin-6-yl]-thiourea]: the IC50 in the assay on Jnk1 + Jnk2 was 21.8 µM. In addition, the inhibition at 50 µM in the assay on Erk → pRsk amounted to 90%; with PI3K → pAkt it was 100%.
The matching figures for `O=C(NCCCCO)Nc1ccc2ncc(-c3ccccc3)nc2n1` [Compound 146, 1-(4-Hydroxy-butyl)-3-(3-phenyl-pyrido[2,3-b]pyrazin-6-yl)-urea]: 3.3 µM, 100% and 10%.
For `CCNC(=O)Nc1ccc2ncc(-c3ccc(O)c(OC)c3)nc2n1` [Compound 124, 1-Ethyl-3-[3-(4-hydroxy-3-methoxy-phenyl)-pyrido[2,3-b]pyrazin-6-yl]-urea] the same measures were 1 µM, 90% and 90%.

In general, IC50 refers to the concentration at which inhibition is half-maximal. The inhibition is how much of the control response was suppressed. A higher inhibition goes with a response far below the control.
